The results in this text go back to patent US10508120B2, “TYK2 inhibitors and uses thereof” (Nimbus Lakshmi, Inc., priority 2017, dated 2019).

pKd: −log10 of the molar value.

Test [1] deals with human TYK2 (JH2domain-pseudokinase) (Homo sapiens (Human), UniProt P29597). The experiment in a line: TYK2 JH2 Domain Binding Assay (KINOMEscan). The procedure, abridged:
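Kds, run in duplicate, came from Hill fits (slope fixed at −1) of an 11-point 3-fold dilution series starting at 30,000 nM. Bead-retained TYK2 JH2 (aa G556–D888)–NFkB DBD fusion, DNA-tagged and expressed in HEK293 cells, was read by qPCR after 1 h room-temperature binding in 0.9% DMSO.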

For test [2], the target named is Tyk2 kinase domain (DH1) (Homo sapiens (Human), UniProt P29597). In words: Tyk2 Radioactive Kinase Assay. It is filed as biochemical. The settings on record: compound at 10 μM, ATP 10 μM; for inhibition at 10 µM: read-out: Tyk2 JH1% Inhibition @ 10 μM. The procedure, abridged:
(§1)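 Compounds were tested at a single concentration of 10 μM in a radiometric kinase format against each isolated kinase domain. Activity is reported as percent inhibition at that concentration.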

Test [3] addresses JAK2 kinase domain (JH1) (Homo sapiens (Human), UniProt O60674). In words: JAK2 Radioactive Kinase Assay. It is filed as biochemical. The settings on record: compound at 10 μM, ATP 10 μM; for inhibition at 10 µM: read-out: JAK2 JH1% Inhibition @ 10 μM. The method, boiled down:
as §1

Sequence of Tyk2 kinase domain (DH1) (P29597 897-1176): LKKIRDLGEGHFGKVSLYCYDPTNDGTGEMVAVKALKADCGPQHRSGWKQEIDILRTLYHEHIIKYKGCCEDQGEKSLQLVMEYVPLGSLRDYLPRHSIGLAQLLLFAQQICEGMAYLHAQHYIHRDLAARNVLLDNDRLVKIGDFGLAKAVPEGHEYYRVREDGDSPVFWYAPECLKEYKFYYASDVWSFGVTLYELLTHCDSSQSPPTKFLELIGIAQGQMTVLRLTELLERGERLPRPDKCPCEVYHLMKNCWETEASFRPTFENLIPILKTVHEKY
Sequence of human TYK2 (JH2domain-pseudokinase) (P29597 556-888): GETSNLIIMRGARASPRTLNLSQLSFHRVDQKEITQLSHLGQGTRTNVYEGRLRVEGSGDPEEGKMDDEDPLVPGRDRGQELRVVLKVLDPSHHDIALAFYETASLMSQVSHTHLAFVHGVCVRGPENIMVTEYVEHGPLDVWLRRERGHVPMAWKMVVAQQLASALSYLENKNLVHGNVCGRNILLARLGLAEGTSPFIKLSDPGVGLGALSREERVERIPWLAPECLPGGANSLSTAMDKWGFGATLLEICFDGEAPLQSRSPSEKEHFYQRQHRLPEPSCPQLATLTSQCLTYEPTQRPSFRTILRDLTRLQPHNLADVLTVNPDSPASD
Sequence of JAK2 kinase domain (JH1) (O60674 849-1124): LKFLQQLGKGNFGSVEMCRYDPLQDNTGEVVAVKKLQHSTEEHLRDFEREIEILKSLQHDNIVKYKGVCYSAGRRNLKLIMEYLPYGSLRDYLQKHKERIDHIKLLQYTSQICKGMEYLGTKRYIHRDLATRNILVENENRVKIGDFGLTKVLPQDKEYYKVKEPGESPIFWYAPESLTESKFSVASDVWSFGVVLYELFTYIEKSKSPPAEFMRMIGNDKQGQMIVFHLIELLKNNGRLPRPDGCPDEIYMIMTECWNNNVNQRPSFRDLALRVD

Compound `CNc1cc(-c2cn(CCN3CCOCC3)c3ncccc23)nc2c(C(=O)NC3CC3)cnn12` [I-582] had a pKd in test [1] of over 9.70. The inhibition at 10 µM in test [2] and in test [3] was under 50% throughout.

In test [1], `CNc1cc(-c2cn(CCN3CCOCC3)c3ncccc23)nc2c(C(=O)N[C@H]3C[C@H]3F)cnn12` [I-583] showed a pKd of over 9.70. For the same compound, the inhibition at 10 µM in test [2] and in test [3] was under 50% throughout.

For the compound `CNc1cc(-c2cn(CCN3CCCCC3)c3ncccc23)nc2c(C(=O)NC3CC3)cnn12` [I-584, N-cyclopropyl-7-(methylamino)-5-(1-(2-(piperidin-1-yl)ethyl)-1H-pyrrolo[2,3-b]pyridin-3-yl)pyrazolo[1,5-a]pyrimidine-3-carboxamide], the pKd in test [1] was over 9.70. The inhibition at 10 µM in test [2] and in test [3] was under 50% throughout.

For `CNc1cc(-c2cn(C(C)C)c3ncccc23)nc2c(C(=O)NCC3(CO)CC3)cnn12` [I-587], the pKd in test [1] was 9.00 to 9.70. In addition, the inhibition at 10 µM in test [2] and in test [3] was under 50% throughout.

In turn, `CNc1cc(-c2cn(C(C)C)c3ncccc23)nc2c(C(=O)NCC(C)(C)CO)cnn12` [I-588, N-(3-hydroxy-2,2-dimethylpropyl)-5-(1-isopropyl-1H-pyrrolo[2,3-b]pyridin-3-yl)-7-(methylamino)pyrazolo[1,5-a]pyrimidine-3-carboxamide] gave a pKd in test [1] of 9.00 to 9.70. Further, the inhibition at 10 µM in test [2] and in test [3] was under 50% throughout.

In the case of `CNc1cc(Nc2cccc(N3CCOCC3)n2)nc2c(C(=O)NC3CC3)cnn12` [I-589], the pKd in test [1] is over 9.70. Moreover, the inhibition at 10 µM in test [2] and in test [3] was under 50% each time.

For the compound `CNc1cc(Nc2cccn(-c3ncccc3F)c2=O)nc2c(C(=O)NCC(C)CO)cnn12` (stereo not drawn) [I-593, 5-((3′-fluoro-2-oxo-2H-[1,2′-b]pyridinyl-3-yl)amino)-N-(3-hydroxy-2-methylpropyl)-7-(methylamino)pyrazolo[1,5-a]pyrimidine-3-carboxamide], the pKd in test [1] was over 9.70. The inhibition at 10 µM in test [2] and in test [3] was under 50% in each case.

As to `CNc1cc(Nc2cccn([C@@H]3CCOC[C@@H]3OC)c2=O)nc2c(C(=O)NC3CC3)cnn12` [I-594], the pKd in test [1] is 9.00 to 9.70. In addition, in test [2], the “Tyk2 JH1% Inhibition @ 10 μM” value was “A (percent inhibition at 10 μM lower than 50)”. Also, the “JAK2 JH1% Inhibition @ 10 μM” value in test [3] is reported as “A (percent inhibition at 10 μM lower than 50)”.

`CNc1cc(Nc2cccn([C@H]3CCOC[C@H]3OC)c2=O)nc2c(C(=O)NC3CC3)cnn12` [I-595] had a pKd in test [1] of 8.00 to 9.00. Moreover, the inhibition at 10 µM in test [2] and in test [3] was under 50% each time.

`CNc1cc(Nc2cccn(C3CCOCC3)c2=O)nc2c(C(=O)N[C@@H]3CC[C@H]3O)cnn12` [I-597] gave a pKd in test [1] of 9.00 to 9.70. Moreover, the inhibition at 10 µM in test [2] and in test [3] was under 50% throughout.

As to `CNc1cc(Nc2cccn([C@@H]3CCCOC3)c2=O)nc2c(C(=O)NCC(C)(C)CO)cnn12` [I-598], the pKd in test [1] is over 9.70. Further, the figures for the inhibition at 10 µM in test [2] and in test [3] were 50 to 70% and under 50%, respectively.

Consider `CNc1cc(Nc2cccn([C@H]3CCCOC3)c2=O)nc2c(C(=O)NCC(C)(C)CO)cnn12` [I-599], for which the pKd in test [1] was over 9.70. Moreover, the inhibition at 10 µM in test [2] and in test [3] was under 50% throughout.

The compound `CNc1cc(Nc2cccn(-c3cnn(C[C@@H]4CCOC4)c3)c2=O)nc2c(C(=O)NC3CC3)cnn12` [I-600] gave a pKd in test [1] of over 9.70. Further, the inhibition at 10 µM in test [2] and in test [3] was under 50% throughout.

Regarding `CNc1cc(Nc2cccn(-c3cnn(C[C@H]4CCOC4)c3)c2=O)nc2c(C(=O)NC3CC3)cnn12` [I-601], the pKd in test [1] is over 9.70. The inhibition at 10 µM in test [2] and in test [3] was under 50% each time.

`CNc1cc(Nc2cccc([C@H]3CCCOC3)n2)nc2c(C(=O)N[C@H]3CC[C@@H]3O)cnn12` [I-602] showed a pKd in test [1] of over 9.70. The inhibition at 10 µM in test [2] and in test [3] was under 50% in each case.

Compound `CNc1cc(Nc2cccc([C@H]3CCCOC3)n2)nc2c(C(=O)N[C@@H]3CC[C@@H]3O)cnn12` [I-604] had a pKd in test [1] of over 9.70. Further, the inhibition at 10 µM in test [2] and in test [3] was under 50% each time.

`CNc1cc(Nc2cccc([C@@H]3CCCOC3)n2)nc2c(C(=O)N[C@@H]3CC[C@@H]3O)cnn12` [I-605] had a pKd in test [1] of over 9.70. The inhibition at 10 µM in test [2] and in test [3] was under 50% each time.

Regarding `CNc1cc(Nc2cccn([C@H]3CCN(C)C[C@@H]3F)c2=O)nc2c(C(=O)NC3CC3)cnn12` [I-608], the pKd in test [1] is over 9.70. Further, the inhibition at 10 µM in test [2] and in test [3] was under 50% in each case.

`CNc1cc(Nc2cccn(C3CCN(C)CC3)c2=O)nc2c(C(=O)N[C@@H]3CC[C@@H]3O)cnn12` [I-609] had a pKd in test [1] of over 9.70. For the same compound, the inhibition at 10 µM in test [2] and in test [3] was under 50% in each case.

In the case of `CNc1cc(Nc2cccc([C@@H]3CCCCO3)n2)nc2c(C(=O)N[C@@H]3CC[C@@H]3O)cnn12` [I-610], the negative logarithm of the Kd (pKd) in test [1] was over 9.70. In addition, the inhibition at 10 µM in test [2] and in test [3] was under 50% each time.

In turn, `CNc1cc(Nc2cccc([C@H]3CCCCO3)n2)nc2c(C(=O)N[C@@H]3CC[C@@H]3O)cnn12` [I-611] had a pKd in test [1] of over 9.70. Moreover, the inhibition at 10 µM in test [2] and in test [3] was under 50% throughout.

In test [1], `CNc1cc(Nc2cccn([C@H]3CC[C@H](OC)CC3)c2=O)nc2c(C(=O)NCC(C)CO)cnn12` (stereo partly drawn) [I-613] showed a pKd of over 9.70. In addition, the inhibition at 10 µM in test [2] and in test [3] was under 50% in each case.

In test [1], `CNc1cc(Nc2cccnc2OC)nc2c(C(=O)N[C@@H]3COC[C@@H]3O)cnn12` [I-614] gave a pKd of 8.00 to 9.00. Further, the inhibition at 10 µM in test [2] and in test [3] was under 50% in each case.

`CNc1cc(Nc2cccnc2OC)nc2c(C(=O)N[C@H]3COC[C@H]3O)cnn12` [I-615] showed a pKd in test [1] of over 9.70. The inhibition at 10 µM in test [2] and in test [3] was under 50% in each case.

For the compound `CNc1cc(-c2cn(CCN3CCN(C)CC3)c3ncccc23)nc2c(C(=O)NC3CC3)cnn12` [I-616], the pKd in test [1] was over 9.70. For the same compound, the inhibition at 10 µM in test [2] and in test [3] was under 50% in each case.

Take `CNc1cc(-c2cn(CCN3CCN(C)CC3)c3ncccc23)nc2c(C(=O)N[C@H]3C[C@H]3F)cnn12` [I-617]: the pKd in test [1] is over 9.70. The inhibition at 10 µM in test [2] and in test [3] was under 50% in each case.

Compound `CNc1cc(Nc2cccc(N3CC4(CCO4)C3)n2)nc2c(C(=O)NC3CC3)cnn12` [I-618] showed a pKd in test [1] of over 9.70. For the same compound, the inhibition at 10 µM in test [2] and in test [3] was under 50% each time.

For `CNc1cc(Nc2cccc(N3CC4(CCO4)C3)n2)nc2c(C(=O)N[C@H]3C[C@H]3F)cnn12` [I-619], the pKd in test [1] is over 9.70. For the same compound, the inhibition at 10 µM in test [2] and in test [3] was under 50% in each case.

With `CNc1cc(Nc2cccc(N3CC(O)C3)n2)nc2c(C(=O)NC3CC3)cnn12` [I-620], the pKd in test [1] is over 9.70. Besides, the inhibition at 10 µM in test [2] and in test [3] was under 50% throughout.

As a reminder, the pKd is the Kd on a negative log10 scale, so that one unit is a factor of ten. Read a low pKd as a high Kd. The inhibition is the change of the read-out against control, counted positive when it falls.
